# From patent publication US9980943B2, “Methods of treating muscular dystrophy” (BOARD OF REGENTS OF THE NEVADA SYSTEM OF HIGHER EDUCATION, …, priority 2013, dated 2018)
# What was measured:
# Type in all cases: cell-based, mouse
# [1] = system: β-galactosidase in CMV-LacZ C2C12 myotubes; assay: CMV-LacZ secondary screen in C2C12 myotubes (β-Gal stabilizing assay); conditions: for CMV-LACZ in Myotubes, signal relative to DMSO: C2C12 CMV-LacZ myotubes, fold relative to DMSO; for CMV-LACZ in Myotubes, value relative to DMSO: SU9516 analogs, C2C12 CMV-LacZ, N=2
# Outline: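 Dose-response runs at 0.5–40 μM (0.5, 1, 5, 10, 20, 40 μM; N=2 per point) used a clonal C2C12 line carrying CMV-LacZ. Cells were assayed as myoblasts or as differentiated myotubes, and β-galactosidase levels were read with the FDG fluorogenic substrate.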
# [2] = system: β-galactosidase in CMV-LacZ C2C12 myoblasts; assay: CMV-LacZ secondary screen in C2C12 myoblasts (β-Gal stabilizing assay); conditions: for CMV-LACZ in Myoblasts (β-galactosidase activity relative to DMSO): CMV-LacZ C2C12 myoblasts; for CMV-LACZ in Myoblasts, value relative to DMSO: SU9516 analogs, C2C12 CMV-LacZ, N=2
# Outline: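 Stable CMV-LacZ C2C12 clone; six-point curve 0.5–40 μM; duplicates.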
# [3] = system: α7 integrin (LacZ reporter in α7βgal+/− myoblasts); assay: Myoblast α7+/LacZ integrin FDG assay (Burkin assay in myoblasts, 96-well); conditions: for Burkin Assay in Myoblasts, signal relative to DMSO: α7+/LacZ myoblasts; for Burkin Assay in Myoblasts, signal relative to DMSO / Burkin Assay in Myoblasts, value relative to DMSO: 96-well; for Burkin Assay in Myoblasts, value relative to DMSO: SU9516 analogs, N=3-6
# [4] = system: α7 integrin (LacZ reporter in α7+/LacZ myotubes); assay: Myotube α7 integrin FDG assay (Burkin assay in myotubes, 96-well); conditions: for Burkin Assay in Myotubes, value relative to DMSO: SU9516 analogs, 96-well, N=3-6
# [5] = Mus musculus, Myoblast, 48 h, read-out: Burkin Assay in Myoblasts, value relative to DMSO
smiles,measurement,setting,value
Nc1cccc(/C=C/C(=O)O)c1 [MLS000777780-01],"CMV-LACZ in Myotubes, signal relative to DMSO",[1]; 0.5 uM,0.8914
same,"CMV-LACZ in Myotubes, signal relative to DMSO",[1]; 1 uM,0.8838
same,"CMV-LACZ in Myotubes, signal relative to DMSO",[1]; 5 uM,1.0471
same,"CMV-LACZ in Myotubes, signal relative to DMSO",[1]; 10 uM,0.8808
same,"CMV-LACZ in Myotubes, signal relative to DMSO",[1]; 20 uM,0.9316
same,"CMV-LACZ in Myotubes, signal relative to DMSO",[1]; 40 uM,1.0474
same,CMV-LACZ in Myoblasts (β-galactosidase activity relative to DMSO),[2]; 0.5 uM,0.8779
same,CMV-LACZ in Myoblasts (β-galactosidase activity relative to DMSO),[2]; 1 uM,0.9063
same,CMV-LACZ in Myoblasts (β-galactosidase activity relative to DMSO),[2]; 5 uM,0.9893
same,CMV-LACZ in Myoblasts (β-galactosidase activity relative to DMSO),[2]; 10 uM,1.0126
same,CMV-LACZ in Myoblasts (β-galactosidase activity relative to DMSO),[2]; 20 uM,1.3393
same,CMV-LACZ in Myoblasts (β-galactosidase activity relative to DMSO),[2]; 40 uM,0.9463
same,"Burkin Assay in Myoblasts, signal relative to DMSO",[3]; 0.5 uM,1.136
same,"Burkin Assay in Myoblasts, signal relative to DMSO",[3]; 1 uM,1.056
same,"Burkin Assay in Myoblasts, signal relative to DMSO",[3]; 5 uM,0.9439
same,"Burkin Assay in Myoblasts, signal relative to DMSO",[3]; 10 uM,1.248
same,"Burkin Assay in Myoblasts, signal relative to DMSO",[3]; 20 uM,0.9133
same,"Burkin Assay in Myoblasts, signal relative to DMSO",[3]; 40 uM,0.7231
same,"Burkin Assay in Myotubes, α7 integrin LacZ reporter signal relative to DMSO",[4]; 0.5 uM,1.047
same,"Burkin Assay in Myotubes, α7 integrin LacZ reporter signal relative to DMSO",[4]; 1 uM,0.9837
same,"Burkin Assay in Myotubes, α7 integrin LacZ reporter signal relative to DMSO",[4]; 5 uM,0.8697
same,"Burkin Assay in Myotubes, α7 integrin LacZ reporter signal relative to DMSO",[4]; 10 uM,0.9393
same,"Burkin Assay in Myotubes, α7 integrin LacZ reporter signal relative to DMSO",[4]; 20 uM,0.8814
same,"Burkin Assay in Myotubes, α7 integrin LacZ reporter signal relative to DMSO",[4]; 40 uM,0.7756
COc1ccc(Cl)cc1NC(=O)c1cc(-c2cc(C)ccc2O)n[nH]1 [MLS000779126-01],"CMV-LACZ in Myotubes, signal relative to DMSO",[1]; 0.5 uM,0.9495
same,"CMV-LACZ in Myotubes, signal relative to DMSO",[1]; 1 uM,1.2162
same,"CMV-LACZ in Myotubes, signal relative to DMSO",[1]; 5 uM,1.0257
same,"CMV-LACZ in Myotubes, signal relative to DMSO",[1]; 10 uM,1.0467
same,"CMV-LACZ in Myotubes, signal relative to DMSO",[1]; 20 uM,0.9988
same,"CMV-LACZ in Myotubes, signal relative to DMSO",[1]; 40 uM,1.1671
same,CMV-LACZ in Myoblasts (β-galactosidase activity relative to DMSO),[2]; 0.5 uM,0.9751
same,CMV-LACZ in Myoblasts (β-galactosidase activity relative to DMSO),[2]; 1 uM,0.9994
same,CMV-LACZ in Myoblasts (β-galactosidase activity relative to DMSO),[2]; 5 uM,0.9637
same,CMV-LACZ in Myoblasts (β-galactosidase activity relative to DMSO),[2]; 10 uM,0.7610
same,CMV-LACZ in Myoblasts (β-galactosidase activity relative to DMSO),[2]; 20 uM,0.9944
same,CMV-LACZ in Myoblasts (β-galactosidase activity relative to DMSO),[2]; 40 uM,0.7441
same,"Burkin Assay in Myoblasts, signal relative to DMSO",[3]; 0.5 uM,1.019
same,"Burkin Assay in Myoblasts, signal relative to DMSO",[3]; 1 uM,1.115
same,"Burkin Assay in Myoblasts, signal relative to DMSO",[3]; 5 uM,0.9229
same,"Burkin Assay in Myoblasts, signal relative to DMSO",[3]; 10 uM,0.8196
same,"Burkin Assay in Myoblasts, signal relative to DMSO",[3]; 20 uM,0.9124
same,"Burkin Assay in Myoblasts, signal relative to DMSO",[3]; 40 uM,0.9389
same,"Burkin Assay in Myotubes, α7 integrin LacZ reporter signal relative to DMSO",[4]; 0.5 uM,0.9836
same,"Burkin Assay in Myotubes, α7 integrin LacZ reporter signal relative to DMSO",[4]; 1 uM,1.018
same,"Burkin Assay in Myotubes, α7 integrin LacZ reporter signal relative to DMSO",[4]; 5 uM,0.9146
same,"Burkin Assay in Myotubes, α7 integrin LacZ reporter signal relative to DMSO",[4]; 10 uM,0.8758
same,"Burkin Assay in Myotubes, α7 integrin LacZ reporter signal relative to DMSO",[4]; 20 uM,0.8832
same,"Burkin Assay in Myotubes, α7 integrin LacZ reporter signal relative to DMSO",[4]; 40 uM,0.7768
CCc1nc(/C=C2\C(=O)Nc3ccccc32)c[nH]1 [MLS000834755-01],"CMV-LACZ in Myotubes, value relative to DMSO",[1]; 0.5 uM,0.5547
same,"CMV-LACZ in Myotubes, value relative to DMSO",[1]; 1 uM,1.2863
same,"CMV-LACZ in Myotubes, value relative to DMSO",[1]; 5 uM,1.0514
same,"CMV-LACZ in Myotubes, value relative to DMSO",[1]; 10 uM,1.1048
same,"CMV-LACZ in Myotubes, value relative to DMSO",[1]; 20 uM,1.2989
same,"CMV-LACZ in Myotubes, value relative to DMSO",[1]; 40 uM,0.8789
same,"CMV-LACZ in Myoblasts, value relative to DMSO",[2]; 0.5 uM,1.0317
same,"CMV-LACZ in Myoblasts, value relative to DMSO",[2]; 1 uM,1.0400
same,"CMV-LACZ in Myoblasts, value relative to DMSO",[2]; 5 uM,0.9591
same,"CMV-LACZ in Myoblasts, value relative to DMSO",[2]; 10 uM,0.9834
same,"CMV-LACZ in Myoblasts, value relative to DMSO",[2]; 20 uM,0.9007
same,"CMV-LACZ in Myoblasts, value relative to DMSO",[2]; 40 uM,0.9133
same,fold induction at 0.5 µM,[3]; [5],1.27
same,fold induction at 1 µM,[3]; [5],1.08
same,fold induction at 5 µM,[3]; [5],1.08
same,fold induction at 10 µM,[3]; [5],1.16
same,fold induction at 20 µM,[3]; [5],1.19
same,fold induction at 40 µM,[3]; [5],0.796
same,"Burkin Assay in Myotubes, value relative to DMSO",[4]; 0.5 uM,1.263
same,"Burkin Assay in Myotubes, value relative to DMSO",[4]; 1 uM,1.232
same,"Burkin Assay in Myotubes, value relative to DMSO",[4]; 5 uM,1.003
same,"Burkin Assay in Myotubes, value relative to DMSO",[4]; 10 uM,0.9868
same,"Burkin Assay in Myotubes, value relative to DMSO",[4]; 20 uM,0.9687
same,"Burkin Assay in Myotubes, value relative to DMSO",[4]; 40 uM,0.816
O=C1Nc2ccccc2/C1=C/c1cnc(-c2ccccc2)[nH]1 [MLS000834756-01],"CMV-LACZ in Myotubes, value relative to DMSO",[1]; 0.5 uM,0.9859
same,"CMV-LACZ in Myotubes, value relative to DMSO",[1]; 1 uM,1.0059
same,"CMV-LACZ in Myotubes, value relative to DMSO",[1]; 5 uM,1.1994
same,"CMV-LACZ in Myotubes, value relative to DMSO",[1]; 10 uM,1.1713
same,"CMV-LACZ in Myotubes, value relative to DMSO",[1]; 20 uM,2.0788
same,"CMV-LACZ in Myotubes, value relative to DMSO",[1]; 40 uM,2.2953
same,"CMV-LACZ in Myoblasts, value relative to DMSO",[2]; 0.5 uM,0.8709
same,"CMV-LACZ in Myoblasts, value relative to DMSO",[2]; 1 uM,1.0422
same,"CMV-LACZ in Myoblasts, value relative to DMSO",[2]; 5 uM,1.2652
same,"CMV-LACZ in Myoblasts, value relative to DMSO",[2]; 10 uM,1.0917
same,"CMV-LACZ in Myoblasts, value relative to DMSO",[2]; 20 uM,0.8022
same,"CMV-LACZ in Myoblasts, value relative to DMSO",[2]; 40 uM,1.1889
same,"Burkin Assay in Myoblasts, value relative to DMSO",[3]; 0.5 uM,1.056
same,"Burkin Assay in Myoblasts, value relative to DMSO",[3]; 1 uM,1.098
same,"Burkin Assay in Myoblasts, value relative to DMSO",[3]; 5 uM,1.227
same,"Burkin Assay in Myoblasts, value relative to DMSO",[3]; 10 uM,1.172
same,"Burkin Assay in Myoblasts, value relative to DMSO",[3]; 20 uM,1.064
same,"Burkin Assay in Myoblasts, value relative to DMSO",[3]; 40 uM,1.081
same,"Burkin Assay in Myotubes, value relative to DMSO",[4]; 0.5 uM,1.079
same,"Burkin Assay in Myotubes, value relative to DMSO",[4]; 1 uM,1.189
same,"Burkin Assay in Myotubes, value relative to DMSO",[4]; 5 uM,1.095
same,"Burkin Assay in Myotubes, value relative to DMSO",[4]; 10 uM,0.9214
same,"Burkin Assay in Myotubes, value relative to DMSO",[4]; 20 uM,0.9495
same,"Burkin Assay in Myotubes, value relative to DMSO",[4]; 40 uM,0.9189
Cc1ncc(/C=C2\C(=O)Nc3ccccc32)[nH]1 [MLS000834757-01],"CMV-LACZ in Myotubes, value relative to DMSO",[1]; 0.5 uM,1.0238
same,"CMV-LACZ in Myotubes, value relative to DMSO",[1]; 1 uM,0.8695
same,"CMV-LACZ in Myotubes, value relative to DMSO",[1]; 5 uM,1.0546
same,"CMV-LACZ in Myotubes, value relative to DMSO",[1]; 10 uM,1.1047
same,"CMV-LACZ in Myotubes, value relative to DMSO",[1]; 20 uM,1.0789
same,"CMV-LACZ in Myotubes, value relative to DMSO",[1]; 40 uM,1.3600
same,"CMV-LACZ in Myoblasts, value relative to DMSO",[2]; 0.5 uM,1.0367
same,"CMV-LACZ in Myoblasts, value relative to DMSO",[2]; 1 uM,0.9300
same,"CMV-LACZ in Myoblasts, value relative to DMSO",[2]; 5 uM,0.9101
same,"CMV-LACZ in Myoblasts, value relative to DMSO",[2]; 10 uM,1.0942
same,"CMV-LACZ in Myoblasts, value relative to DMSO",[2]; 20 uM,0.8115
same,"CMV-LACZ in Myoblasts, value relative to DMSO",[2]; 40 uM,1.1026
same,"Burkin Assay in Myoblasts, value relative to DMSO",[3]; 0.5 uM,1.0102
same,"Burkin Assay in Myoblasts, value relative to DMSO",[3]; 1 uM,1.003
same,"Burkin Assay in Myoblasts, value relative to DMSO",[3]; 5 uM,1.125
same,"Burkin Assay in Myoblasts, value relative to DMSO",[3]; 10 uM,0.9651
same,"Burkin Assay in Myoblasts, value relative to DMSO",[3]; 20 uM,1.117
same,"Burkin Assay in Myoblasts, value relative to DMSO",[3]; 40 uM,1.021
same,"Burkin Assay in Myotubes, value relative to DMSO",[4]; 0.5 uM,1.019
same,"Burkin Assay in Myotubes, value relative to DMSO",[4]; 1 uM,0.943
same,"Burkin Assay in Myotubes, value relative to DMSO",[4]; 5 uM,1.03
same,"Burkin Assay in Myotubes, value relative to DMSO",[4]; 10 uM,0.9537
same,"Burkin Assay in Myotubes, value relative to DMSO",[4]; 20 uM,0.9989
same,"Burkin Assay in Myotubes, value relative to DMSO",[4]; 40 uM,0.9464
